Source: patent US20080003569A1, “Method for the Detection of Intracellular Parameters With Luminescent Protein Probes for the Screening of Molecules Capable of Altering Said Parameters” (priority 2004, published 2008)

Columns and labels:
[1] = tested on: endogenous receptor for ATP P2Y; assay: mt-AEQ photon emission, CHO cells, endogenous ATP receptor; format: cell-based; settings: ATP 100 μM
Description: (§2) 36 hours after the transfection, the cells, cultivated on flasks for cellular cultures (75 cm^2), were detached from the bottom by trypsinization. The cellular suspension was then transferred to a Falcon tube (of 15 or 50 ml) and subjected to centrifugation at 1200 rpm in a cell centrifuge at 20° C. and finally the cellular precipitate was re-suspended in KRB/Ca^2+ (Krebs-Ringer modified buffer: 125 mM NaCl, 5 mM KCl, 1 mM CaCl2, 1 mM Na3PO4, 1 mM MgSO4, 5.5 mM glucose, 20 mM HEPES, pH 7.4, 37° C.).
(§3) The prosthetic group celentherazine was added at a final concentration of 5 μM to the suspension of engineered cells expressing the mt-AEQ probe.
(§4) 50 μl of suspension containing transfected cells (corresponding to about 100,000 cells) were planted in each well of the plate. The cells were left to adhere for a time varying from 1 to 2 hours keeping them in the dark, due to the photo-instability of celentherazine.
(§5) At the end of the incubation time, the various molecules to be tested were added to each well and the plate with the treated cells was then put in direct contact with a photo-multiplier which measures the emission of photons on the part of aequorin.

[2] = tested on: PKC-aequorin (PKC-AEQ) probe: PKC beta, delta, epsilon, zeta; assay: Translocation of PKC-aequorin probe to the plasmatic membrane, HeLa cells, photon emission; format: cell-based
Text: In the specific example, the results presented relate to the use of the PKC beta-aequorin (PCKβ-AEQ), PKC delta-aequorin (PCKδ-AEQ), PKC epsilon-aequorin (PCKε-AEQ), PKC zeta-aequorin (PCKζ-AEQ) probes.
These probes were obtained by inserting, in a eukaryotic expression vector (pcDNA3; 5.4 kb), the sequence encoding the various PKC isoforms condensed in frame with the sequence encoding aequorin described above.
The cells cultivated on cellular culture flasks (75 cm^2) were transfected with a vector containing the chimeric probe produced, using the most suitable transfection techniques for the cellular line in question. As the HeLa stabilized cellular line was used as experimental model, the calcium phosphate technique was adopted as transfection method which guarantees a high percentage of positive cells for this cellular line.
(§1) 36 hours after transfection, the cells contained in the flask were detached from the bottom by trypsinization.
The prosthetic group celentherazine was added to the suspension of cells expressing the PKC-aequorin probe at a final concentration of 5 μM. […]

[3] = biological target: endogenous receptor for histamine Hi (Homo sapiens, UniProt P35367); settings: HeLa mt-AEQ cells, histamine 100 μM
Chain of endogenous receptor for histamine Hi (P35367 whole entry): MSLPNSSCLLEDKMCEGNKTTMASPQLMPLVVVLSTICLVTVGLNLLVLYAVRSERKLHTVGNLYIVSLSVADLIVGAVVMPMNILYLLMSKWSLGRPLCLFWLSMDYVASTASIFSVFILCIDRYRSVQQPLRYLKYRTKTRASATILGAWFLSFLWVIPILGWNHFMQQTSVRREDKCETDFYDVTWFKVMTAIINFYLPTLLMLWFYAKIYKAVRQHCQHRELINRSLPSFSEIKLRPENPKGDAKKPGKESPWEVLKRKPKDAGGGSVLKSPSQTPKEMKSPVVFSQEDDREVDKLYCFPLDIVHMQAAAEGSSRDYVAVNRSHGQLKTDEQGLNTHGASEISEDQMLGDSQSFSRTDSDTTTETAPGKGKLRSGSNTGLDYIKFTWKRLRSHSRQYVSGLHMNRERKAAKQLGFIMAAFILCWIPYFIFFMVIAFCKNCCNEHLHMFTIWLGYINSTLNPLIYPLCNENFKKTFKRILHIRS
Description: (§6) The cellular lines thus engineered were then both transfected with the vector containing the mt-AEQ probe by means of the calcium phosphate technique.
as §2, §3, §4
(§7) At the end of the incubation time, the various molecules to be tested were added to each well and the plate with the treated cells was then put in direct contact with a photo-multiplier which measures the emission of photons on the part of aequorin. […]

beta adrenergic receptor = assay: mt-AEQ photon emission, control HeLa cells expressing beta adrenergic receptor; format: cell-based; settings: control HeLa cells expressing a beta adrenergic receptor, stimulated with isoproterenol
Description: as §2, §3, §4, §5
HeLa cells expressing a beta adrenergic receptor and stimulated with isoproterenol for inducing the stimulation of said receptor, were used as control (dotted line).

[4] = tested on: beta/alpha adrenergic receptor (chimeric); assay: mt-AEQ photon emission, HeLa cells expressing chimeric beta/alpha adrenergic receptor; format: cell-based; settings: HeLa mt-AEQ cells with chimeric receptor, isoproterenol 100 μM; from less than 20 before stimulation
Description: as §6, §2, §3, §4, §7

[5] = tested on: PKC beta-aequorin (PKCβ-AEQ) probe; assay: Translocation of PKC beta-aequorin probe under hyperglycaemia conditions, HUVEC cells; format: cell-based; settings: 10 mM glucose plus metformin 20 μM
Text: A beta-aequorin PKC probe, already described in example 1, was used, with which HUVEC endothelial cells were transfected. The cells cultivated on cellular culture flasks (75 cm^2) were transfected with a vector containing the chimeric probe produced, using the most suitable transfection techniques for the cellular line in question. Endothelial cells of stabilized umbilical cord veins, called HUVEC, were used as the experimental model, which were transfected with the PKC beta-aequorin probe, using lipofectamine which guarantees a high percentage of positive cells for this cellular line. 36 hours after transfection, the cells contained in the flask were detached from the bottom by trypsinization. […] The prosthetic group celentherazine at a final concentration of 5 μM was added to the cell suspension expressing the PKC beta-aequorin probe. […] The example provided was carried out on three parallel batches of cells: a) HUVEC cells expressing the PKC beta-aequorin (PKCβ-AEQ) probe, maintained under control conditions (absence of glucose) (dotted line). b) HUVEC cells expressing the PKC beta-aequorin (PKCβ-AEQ) probe, maintained under hyperglycaemia conditions (10 mM of glucose) (dark, thick line). c) HUVEC cells expressing the PKC beta-aequorin (PKCβ-AEQ) probe, maintained under hyperglycaemia conditions (10 mM of glucose) treated with a well-known anti-diabetic agent, metformin (20 μM) (dark, thin line).

[6] = tested on: p66shc-aequorin (p66shc-AEQ) probe; assay: Translocation of p66shc-aequorin probe to the plasmatic membrane, A431 cells; format: cell-based
Text: This probe was obtained by inserting, in a eukaryotic expression vector (pcDNA3; 5.4 kb), the sequence encoding the p66shc protein condensed in frame with the sequence encoding aequorin.
The cells cultivated on cellular culture flasks (75 cm^2) were transfected with a vector containing the chimeric probe produced, using the most suitable transfection techniques for the cellular line in question. The stabilized transfected cellular line A431 was adopted as experimental model, using the “Effectene reagent” procedure (Qiagen, Germany), which guarantees a high percentage of positive cells for this cellular line.
24 hours after the transfection, the cells were maintained in a DMEM culture medium, without serum.
as §1
The prosthetic group celentherazine was added to the suspension of cells expressing the p66shc-aequorin probe, at a final concentration of 5 μM. […]

[7] = tested on: ORL1/alpha adrenergic receptor (chimeric); assay: mt-AEQ photon emission, CHO cells expressing chimeric ORL1/alpha adrenergic receptor; format: cell-based; settings: CHO mt-AEQ cells with chimeric receptor, nociceptine 1 μM; from less than 20 before stimulation
Description: as §6, §2, §3, §4, §7

[8] = from less than 20 before stimulation

Compound: Nc1ncnc2c1ncn2[C@@H]1O[C@H](COP(=O)(O)OP(=O)(O)OP(=O)(O)O)[C@@H](O)[C@H]1O [ATP]
- concentration of calcium in the mitochondrial matrix [1]: considerable and transient increase
- emission of photons on the part of aequorin [1, 8]: over 80,000 photons emitted per second

Compound: CCCCCCCCCCCCCC(=O)O[C@@H]1[C@@H](C)[C@@]2(O)[C@@H](C=C(CO)C[C@]3(O)C(=O)C(C)=C[C@@H]23)[C@@H]2C(C)(C)[C@]12OC(C)=O [PMA]
- emission of photons ([2]; HeLa PKC-AEQ cells, PMA 1 μM, after addition of external calcium): > 100,000 cps
- emission of photons ([2]; HeLa cells, absence of external calcium): lower than 100 cps

Compound: NCCc1c[nH]cn1 [histamine, Histamine]
- concentration of calcium in the mitochondrial matrix [3]: considerable and transient increase
- emission of photons on the part of aequorin [3, 8]: over 80,000 photons emitted per second

Compound: CC(C)NCC(O)c1ccc(O)c(O)c1 (centres unmarked) [isoproterenol, Isoproterenol]
- increase in cps (beta adrenergic receptor): does not induce any increase in cps
- emission of photons on the part of aequorin [4]: over 80,000 photons emitted per second

Compound: CN(C)C(=N)N=C(N)N [metformin]
- emission of photons ([5]; HUVEC PKCβ-AEQ cells, after addition of external calcium): lower than 40,000 cps
- inhibition of the PKCβ-AEQ probe translocation (grade) ([5]; HUVEC): good inhibition
- translocation induced by glucose under hyperglycaemia conditions ([5]; HUVEC): inhibits the translocation

Compound: EGF: epidermic growth factor, maximal activator of p66shc translocation
- emission of photons ([6]; A431 cells, absence of external calcium): lower than 100 cps
- emission of photons ([6]; A431 p66shc-AEQ cells, EGF 100 ng/ml, after addition of external calcium): > 100,000 cps

Compound: Nociceptine
- emission of photons on the part of aequorin [7]: over 80,000 photons emitted per second
